Patent publication US20250230138A1, “COMPOUNDS HAVING A T-STRUCTURE FORMED BY AT LEAST FOUR CYCLES FOR USE IN THE TREATMENT OF CANCER AND OTHER INDICATIONS” (TheRas, Inc., priority 2022, published 2025)
Where two headings read alike, the source gives them in different places.

Key:
[1] = target: Cys242 in human PIK3CA (157-299) (Homo sapiens (Human), UniProt P42336); assay: Covalent modification assay using MALDI-TOF MS; type: biochemical; conditions: 4 h reaction time point; 3.33 μM protein target, 1:7.5 protein to compound ratio (compounds 1-852)
Method in brief: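 PIK3CA (157-299), 3.33 or 1 μM in 20 mM HEPES, 150 mM NaCl, 2 mM MgCl2, pH 7.3, was incubated with compound at room temperature in the dark for 15 min, 30 min, 2 h or 4 h. Linear MALDI-TOF read-out; % modification = adduct peak height over summed heights of all protein species.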

[2] = tested on: pAKT in BT474 cells; assay: Cell-based pAKT HTRF assay in BT474 cells; conditions: BT474 cells, 4 hr incubation, Compounds 10-999, read-out: pAKT inhibition IC50 in BT474 cells
Method in brief: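 The HTRF signal (excitation 320 nm, emission 615 nm) came from d2/Eu Cryptate antibodies added to lysates and incubated 4–24 h at room temperature. Those lysates were taken from cells treated for 4 hr with compound, top concentration 3 μM, in 0.25% DMSO.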

Sequence of Cys242 in human PIK3CA (157-299) (P42336 157-299): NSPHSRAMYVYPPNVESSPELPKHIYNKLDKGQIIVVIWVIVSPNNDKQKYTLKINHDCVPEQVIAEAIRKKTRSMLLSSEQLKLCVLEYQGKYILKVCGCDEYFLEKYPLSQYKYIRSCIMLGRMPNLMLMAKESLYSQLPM

C=CC(=O)N1CCc2nc(-c3nc(-c4cnn(C)c4)c4ccsc4c3-c3ccc(F)cc3OCC3CCN(C)C(=O)C3)sc2C1 (stereo not drawn) [Compound 221]
% of modification [1]: A (percent of modification of PIK3CA protein ≥75%) | IC50 [2]: < 100 nM

C=CC(=O)N1CCn2nc(-c3nc(-c4ccc5c(c4)CCNC5)c4ccsc4c3-c3ccc(F)cc3OC(F)F)cc2C1 [Compound 222]
% of modification [1]: A (percent of modification of PIK3CA protein ≥75%) | IC50 [2]: < 100 nM

C=CC(=O)N1CCn2nc(-c3nc(-c4ccc(=O)n(C)c4)c4ccsc4c3-c3ccc(F)cc3OC(F)F)cc2C1 [Compound 223]
% of modification [1]: A (percent of modification of PIK3CA protein ≥75%) | IC50 [2]: < 100 nM

C=CC(=O)N1CCn2nc(-c3nc(-c4cnn(C)c4)c4ccsc4c3-c3ccc(F)cc3OC(F)F)cc2C1 [Compound 224]
% of modification [1]: A (percent of modification of PIK3CA protein ≥75%) | IC50 [2]: < 100 nM

C=CC(=O)N1CCn2nc(-c3nc(-c4cnn(C)c4)c4ccsc4c3-c3ccc(F)cc3OC(C)C)nc2C1 [Compound 225]
% of modification [1]: A (percent of modification of PIK3CA protein ≥75%) | IC50 [2]: < 100 nM

C=CC(=O)N1CCn2nc(-c3nc(-c4ccnc(N)c4)c4ccsc4c3-c3ccc(F)cc3OC(F)F)cc2C1 [Compound 226]
% of modification [1]: A (percent of modification of PIK3CA protein ≥75%) | IC50 [2]: < 100 nM

C=CC(=O)N1CCc2nc(-c3nc(-c4cnc5c(c4)CNCC5)c4ccsc4c3-c3ccc(F)cc3OCCOC)sc2C1 [Compound 227]
% of modification [1]: A (percent of modification of PIK3CA protein ≥75%) | IC50 [2]: < 100 nM

C=CC(=O)N1CC(n2cc(-c3nc(N4CCn5cnnc5C4)c4ccsc4c3-c3ccc(F)cc3OCCOC)cn2)C1 [Compound 228]
% of modification [1]: A (percent of modification of PIK3CA protein ≥75%) | IC50 [2]: 100 to 1000 nM

C=CC(=O)N1CCC(n2cc(-c3nc(-c4cnn5c4C(=O)NCC5)c4ccsc4c3-c3ccc(F)cc3OCCOC)cn2)CC1 [Compound 230]
% of modification [1]: B (50%<percent of modification <75%) | IC50 [2]: 100 to 1000 nM

C=CC(=O)N1CC(n2cc(-c3nc(-c4cnn(CC(F)F)c4)c4ccsc4c3-c3ccc(F)cc3OCCOC)cn2)C1 [Compound 232]
% of modification [1]: A (percent of modification of PIK3CA protein ≥75%) | IC50 [2]: < 100 nM

C=CC(=O)N1CC(n2cc(-c3nc(-c4cnn(CCO)c4)c4ccsc4c3-c3ccc(F)cc3OCCOC)cn2)C1 [Compound 233]
% of modification [1]: A (percent of modification of PIK3CA protein ≥75%) | IC50 [2]: < 100 nM

C=CC(=O)N1CC(n2cc(-c3nc(-c4ccnc(N)c4)c4ccsc4c3-c3ccc(F)cc3OCCOC)cn2)C1 [Compound 234]
% of modification [1]: A (percent of modification of PIK3CA protein ≥75%) | IC50 [2]: < 100 nM

C=CC(=O)N1CC(n2cc(-c3nc(-c4cnn(CF)c4)c4ccsc4c3-c3ccc(F)cc3OCCOC)cn2)C1 [Compound 236]
% of modification [1]: A (percent of modification of PIK3CA protein ≥75%) | IC50 [2]: 100 to 1000 nM

C=CC(=O)N1CC(n2cc(-c3nc(-c4cnn(CC5CC5(F)F)c4)c4ccsc4c3-c3ccc(F)cc3OCCOC)cn2)C1 (stereo not drawn) [Compound 237]
% of modification [1]: A (percent of modification of PIK3CA protein ≥75%) | IC50 [2]: 100 to 1000 nM

C=CC(=O)N1CC(n2cc(-c3nc(-c4ccc(S(N)(=O)=O)cc4)c4ccsc4c3-c3ccc(F)cc3OCCOC)cn2)C1 [Compound 238]
% of modification [1]: A (percent of modification of PIK3CA protein ≥75%) | IC50 [2]: < 100 nM

C=CC(=O)N1CC(n2cc(-c3nc(-c4cnn(CC(N)=O)c4)c4ccsc4c3-c3ccc(F)cc3OCCOC)cn2)C1 [Compound 239]
% of modification [1]: A (percent of modification of PIK3CA protein ≥75%) | IC50 [2]: < 100 nM

C=CC(=O)N1CCn2nc(-c3nc(C4CCN(C(C)C)CC4)c4ccsc4c3-c3ccc(F)cc3OC(C)C)cc2C1 [Compound 240]
% of modification [1]: A (percent of modification of PIK3CA protein ≥75%) | IC50 [2]: < 100 nM

C=CC(=O)N1CC[C@H](n2cc(-c3nc(-c4ccnc(N)c4)c4ccsc4c3-c3ccc(F)cc3OCC3CCNC(=O)C3)ccc2=O)C1 (stereo partly drawn) [Compound 241]
% of modification [1]: A (percent of modification of PIK3CA protein ≥75%) | IC50 [2]: 100 to 1000 nM

C=CC(=O)N1CCn2nc(-c3nc(-c4ccc5c(c4)CCN(C)C5)c4ccsc4c3-c3ccc(F)cc3OCCOC)cc2C1 [Compound 242]
% of modification [1]: A (percent of modification of PIK3CA protein ≥75%) | IC50 [2]: < 100 nM

C=CC(=O)N1CCn2nc(-c3nc(N4CCCCC4)c4ccsc4c3-c3ccc(F)cc3OCC3CCN(C)C(=O)C3)cc2C1 (stereo not drawn) [Compound 243]
% of modification [1]: A (percent of modification of PIK3CA protein ≥75%) | IC50 [2]: 100 to 1000 nM

C=CC(=O)N1CCn2nc(-c3nc(-c4ccc5c(c4)CCN(C(C)C)C5)c4ccsc4c3-c3ccc(F)cc3OC(F)F)cc2C1 [Compound 244]
% of modification [1]: A (percent of modification of PIK3CA protein ≥75%) | IC50 [2]: < 100 nM

C=CC(=O)N1CCn2nc(-c3nc(-c4cnn(C(F)F)c4)c4ccsc4c3-c3ccc(F)cc3OCCOC)cc2C1 [Compound 245]
% of modification [1]: A (percent of modification of PIK3CA protein ≥75%) | IC50 [2]: < 100 nM

C=CC(=O)N1CCn2nc(-c3nc(-c4ccc(=O)[nH]c4)c4ccsc4c3-c3ccc(F)cc3OC(C)C)cc2C1 [Compound 248]
% of modification [1]: A (percent of modification of PIK3CA protein ≥75%) | IC50 [2]: < 100 nM

C=CC(=O)N1CCn2nc(-c3nc(-c4ccnc(N)c4)c4ccsc4c3-c3ccc(F)cc3OCC3CCNC(=O)C3)cc2C1 (stereo not drawn) [Compound 249]
% of modification [1]: A (percent of modification of PIK3CA protein ≥75%) | IC50 [2]: < 100 nM

C=CC(=O)N1CCn2nc(-c3nc(-c4ccc5c(c4)CCN(C(C)C)C5)c4ccsc4c3-c3ccc(F)cc3F)cc2C1 [Compound 250]
% of modification [1]: A (percent of modification of PIK3CA protein ≥75%) | IC50 [2]: < 100 nM

C=CC(=O)N1CCn2nc(-c3nc(-c4cnc5c(c4)CN(C)CC5)c4ccsc4c3-c3ccc(F)cc3OCCOC)cc2C1 [Compound 253]
% of modification [1]: A (percent of modification of PIK3CA protein ≥75%) | IC50 [2]: < 100 nM

C=CC(=O)N1CCn2nc(-c3nc(-c4ccc5c(c4)CCN(C(C)C)C5)c4ccsc4c3-c3ccc(F)cc3OCC3CCNC(=O)C3)cc2C1 (stereo not drawn) [Compound 254]
% of modification [1]: A (percent of modification of PIK3CA protein ≥75%) | IC50 [2]: < 100 nM

C=C(F)C(=O)N1CCn2nc(-c3nc(-c4ccc5c(c4)CCN(C)C5)c4ccsc4c3-c3ccc(F)cc3OC(C)C)nc2C1 [Compound 255]
% of modification [1]: A (percent of modification of PIK3CA protein ≥75%) | IC50 [2]: 100 to 1000 nM

C=C(F)C(=O)N1CCn2nc(-c3nc(-c4ccc5c(c4)CCNC5=O)c4ccsc4c3-c3ccc(F)cc3OC(C)C)nc2C1 [Compound 256]
% of modification [1]: A (percent of modification of PIK3CA protein ≥75%) | IC50 [2]: 100 to 1000 nM

C=CC(=O)N1CCn2nc(-c3nc(-c4ccc5c(c4)[C@H](O)CC5)c4ccsc4c3-c3ccc(F)cc3OCCOC)cc2C1 [Compound 257]
% of modification [1]: A (percent of modification of PIK3CA protein ≥75%) | IC50 [2]: < 100 nM

C=C(F)C(=O)N1CCn2nc(-c3nc(-c4ccc5c(c4)CCNC5=O)c4ccsc4c3-c3ccc(F)cc3OC(C)C)cc2C1 [Compound 258, 6-[7-(4-fluoro-2-isopropoxy-phenyl)-6-[5-(2-fluoroprop-2-enoyl)-6,7-dihydro-4H-pyrazolo[1,5-a]pyrazin-2-yl]thieno[3,2-c]pyridin-4-yl]-3,4-dihydro-2H-isoquinolin-1-one]
% of modification [1]: B (50%<percent of modification <75%) | IC50 ([2]; Homo sapiens, BT-474): < 100 nM

C=CC(=O)N1CCn2nc(-c3nc(-c4cncc(C#N)c4)c4ccsc4c3-c3ccc(F)cc3OC(C)C)cc2C1 [Compound 259]
% of modification [1]: A (percent of modification of PIK3CA protein ≥75%) | IC50 [2]: < 100 nM

C=CC(=O)N1CCn2nc(-c3nc(-c4ccc5c(c4)CCNC5)c4ccsc4c3-c3ccc(F)cc3OCC3CCNC(=O)C3)cc2C1 (stereo not drawn) [Compound 261]
% of modification [1]: A (percent of modification of PIK3CA protein ≥75%) | IC50 [2]: < 100 nM

C=CC(=O)N1CCn2nc(-c3nc(-c4ccc5c(c4)[C@@H](O)CC5)c4ccsc4c3-c3ccc(F)cc3OCCOC)cc2C1 [Compound 262]
% of modification [1]: A (percent of modification of PIK3CA protein ≥75%) | IC50 [2]: < 100 nM

C=CC(=O)N1CCn2nc(-c3nc(-c4ccc5c(c4)CCN(C(C)C)C5)c4ccsc4c3-c3ccc(F)cc3OC)cc2C1 [Compound 263]
% of modification [1]: A (percent of modification of PIK3CA protein ≥75%) | IC50 [2]: < 100 nM

C=CC(=O)N1CCn2cc(-c3nc(-c4ccc(=O)n(C)c4)c4ccsc4c3-c3ccc(F)cc3OCC3CCN(C)C(=O)C3)nc2C1 (stereo not drawn) [Compound 264]
% of modification [1]: A (percent of modification of PIK3CA protein ≥75%) | IC50 [2]: > 3000 nM

C=CC(=O)N1CCn2nc(-c3nc(-c4ccc5c(c4)CCN(C)C5)c4ccsc4c3-c3ccc(F)cc3OC)cc2C1 [Compound 265]
% of modification [1]: A (percent of modification of PIK3CA protein ≥75%) | IC50 [2]: < 100 nM

C=CC(=O)N1CCn2nc(-c3nc(-c4ccc(=O)n(CC(F)F)c4)c4ccsc4c3-c3ccc(F)cc3OCCOC)cc2C1 [Compound 266]
% of modification [1]: A (percent of modification of PIK3CA protein ≥75%) | IC50 [2]: < 100 nM

C=C(F)C(=O)N1CCn2nc(-c3nc(-c4ccc(=O)n(C)c4)c4ccsc4c3-c3ccc(F)cc3OC(C)C)nc2C1 [Compound 267]
% of modification [1]: A (percent of modification of PIK3CA protein ≥75%) | IC50 [2]: 100 to 1000 nM
